From the NIST ThermoML archive (doi:10.1016/j.fluid.2018.04.025)

Assay: xn = mol fraction of the nth substance listed
Conditions: 101 kPa, Liquid; for viscosity: Falling or rolling sphere viscometry; for speed of sound: Frequency=3 MHz, Sing-around technique in a fixed-path interferometer; for mass density: Vibrating tube method

CCCC[n+]1ccn(C)c1.O=S(=O)([N-]S(=O)(=O)C(F)(F)F)C(F)(F)F + CCCCO
Conditions	mass density [kg/m3]	speed of sound [m/s]	viscosity [mPa·s]
298.15 K, x1 = 0.1041	977.145	1204.1	4.37
298.15 K, x1 = 0.203	1088.59	1195.1	6.8
298.15 K, x1 = 0.3026	1170.97	1196.1	9.05
298.15 K, x1 = 0.409	1238.03	1200.2	11.83
298.15 K, x1 = 0.4987	1282.27	1204.3	14.91
298.15 K, x1 = 0.603	1325.15	1209.3	19.73
298.15 K, x1 = 0.6973	1357.81	1214.1	24.95
298.15 K, x1 = 0.809	1390.36	1219.2	32.11
298.15 K, x1 = 0.9104	1415.6	1223	40.26
298.15 K, x1 = 1	1436.02	1227.3	51.22
303.15 K, x1 = 0.1041	972.795	1189.7	3.85
303.15 K, x1 = 0.203	1084	1181.7	5.85
303.15 K, x1 = 0.3026	1166.33	1183.4	7.68
303.15 K, x1 = 0.409	1233.48	1188.1	9.93
303.15 K, x1 = 0.4987	1277.72	1192.4	12.53
303.15 K, x1 = 0.603	1320.71	1197.7	16.62
303.15 K, x1 = 0.6973	1353.3	1202.5	20.95
303.15 K, x1 = 0.809	1385.78	1207.8	26.73
303.15 K, x1 = 0.9104	1411.02	1211.9	33.01
303.15 K, x1 = 1	1431.22	1216.3	41.91
308.15 K, x1 = 0.1041	968.785	1175.3	3.27
308.15 K, x1 = 0.203	1079.65	1168.5	5.03
308.15 K, x1 = 0.3026	1161.89	1170.8	6.62
308.15 K, x1 = 0.409	1228.96	1176	8.51
308.15 K, x1 = 0.4987	1273.42	1180.7	10.71
308.15 K, x1 = 0.603	1316.29	1186.2	14.13
308.15 K, x1 = 0.6973	1348.83	1191.2	17.82
308.15 K, x1 = 0.809	1381.24	1196.7	22.61
308.15 K, x1 = 0.9104	1406.45	1200.9	27.62
308.15 K, x1 = 1	1426.43	1205.5	34.63
313.15 K, x1 = 0.1041	964.582	1161	2.87
313.15 K, x1 = 0.203	1075.17	1155.3	4.39
313.15 K, x1 = 0.3026	1157.28	1158.3	5.75
313.15 K, x1 = 0.409	1224.36	1163.9	7.36
313.15 K, x1 = 0.4987	1268.95	1168.9	9.24
313.15 K, x1 = 0.603	1311.81	1174.7	12.24
313.15 K, x1 = 0.6973	1344.2	1180	15.31
313.15 K, x1 = 0.809	1376.73	1185.6	19.32
313.15 K, x1 = 0.9104	1401.97	1189.9	23.41
313.15 K, x1 = 1	1421.64	1194.7	28.93
318.15 K, x1 = 0.1041	960.208	1146.9	2.53
318.15 K, x1 = 0.203	1070.62	1142.3	3.86
318.15 K, x1 = 0.3026	1152.59	1145.8	5.04
318.15 K, x1 = 0.409	1219.7	1151.9	6.42
318.15 K, x1 = 0.4987	1264.59	1157.2	8.04
318.15 K, x1 = 0.603	1307.37	1163.4	10.61
318.15 K, x1 = 0.6973	1339.66	1168.8	13.32
318.15 K, x1 = 0.809	1372.24	1174.6	16.64
318.15 K, x1 = 0.9104	1397.35	1179.1	19.93
318.15 K, x1 = 1	1416.84	1184	24.63
323.15 K, x1 = 0.1041	955.94	1132.9	2.24
323.15 K, x1 = 0.203	1065.98	1129.4	3.42
323.15 K, x1 = 0.3026	1147.85	1133.5	4.45
323.15 K, x1 = 0.409	1214.91	1140	5.65
323.15 K, x1 = 0.4987	1259.97	1145.7	7.07
323.15 K, x1 = 0.603	1302.8	1152.1	9.29
323.15 K, x1 = 0.6973	1335.11	1157.8	11.74
323.15 K, x1 = 0.809	1367.53	1163.8	14.53
323.15 K, x1 = 0.9104	1392.5	1168.4	17.32
323.15 K, x1 = 1	1411.89	1173.5	21.11

CCCC[n+]1ccn(C)c1.O=S(=O)([N-]S(=O)(=O)C(F)(F)F)C(F)(F)F + CCCO
Conditions	mass density [kg/m3]	speed of sound [m/s]	viscosity [mPa·s]
298.15 K, x1 = 0.1034	997.935	1181.5	3.73
298.15 K, x1 = 0.203	1117.34	1181.2	5.98
298.15 K, x1 = 0.3043	1200.89	1188.3	8.11
298.15 K, x1 = 0.409	1263.74	1196.8	10.82
298.15 K, x1 = 0.5068	1308.36	1203	14.12
298.15 K, x1 = 0.603	1343.44	1209.4	19.03
298.15 K, x1 = 0.6981	1371.86	1214.5	24.41
298.15 K, x1 = 0.809	1399.1	1219.9	31.43
298.15 K, x1 = 0.8925	1416.56	1223.7	39.52
298.15 K, x1 = 1	1436.02	1227.3	51.22
303.15 K, x1 = 0.1034	993.513	1167.2	3.24
303.15 K, x1 = 0.203	1112.85	1168	5.16
303.15 K, x1 = 0.3043	1196.18	1175.7	6.94
303.15 K, x1 = 0.409	1259	1184.7	9.22
303.15 K, x1 = 0.5068	1303.62	1191.2	11.91
303.15 K, x1 = 0.603	1338.71	1197.8	16.24
303.15 K, x1 = 0.6981	1367.11	1203.2	20.52
303.15 K, x1 = 0.809	1394.38	1208.6	26.11
303.15 K, x1 = 0.8925	1411.81	1212.6	32.53
303.15 K, x1 = 1	1431.22	1216.3	41.91
308.15 K, x1 = 0.1034	989.047	1152.9	2.85
308.15 K, x1 = 0.203	1108.26	1154.8	4.5
308.15 K, x1 = 0.3043	1191.48	1163.1	6.01
308.15 K, x1 = 0.409	1254.22	1172.6	7.94
308.15 K, x1 = 0.5068	1298.84	1179.5	10.21
308.15 K, x1 = 0.603	1333.94	1186.3	13.72
308.15 K, x1 = 0.6981	1362.35	1191.8	17.43
308.15 K, x1 = 0.809	1389.63	1197.5	22.13
308.15 K, x1 = 0.8925	1407.06	1201.6	27.21
308.15 K, x1 = 1	1426.43	1205.5	34.63
313.15 K, x1 = 0.1034	984.572	1138.7	2.53
313.15 K, x1 = 0.203	1103.58	1141.7	3.95
313.15 K, x1 = 0.3043	1186.72	1150.7	5.25
313.15 K, x1 = 0.409	1249.43	1160.6	6.9
313.15 K, x1 = 0.5068	1294.03	1167.8	8.85
313.15 K, x1 = 0.603	1329.15	1175	11.93
313.15 K, x1 = 0.6981	1357.57	1180.7	14.94
313.15 K, x1 = 0.809	1384.85	1186.4	18.72
313.15 K, x1 = 0.8925	1402.29	1190.7	22.94
313.15 K, x1 = 1	1421.64	1194.7	28.93
318.15 K, x1 = 0.1034	979.997	1124.5	2.27
318.15 K, x1 = 0.203	1098.85	1128.7	3.69
318.15 K, x1 = 0.3043	1181.93	1138.3	4.84
318.15 K, x1 = 0.409	1244.67	1148.8	6.15
318.15 K, x1 = 0.5068	1289.19	1156.3	7.74
318.15 K, x1 = 0.603	1324.35	1163.7	10.34
318.15 K, x1 = 0.6981	1352.76	1169.5	13.01
318.15 K, x1 = 0.809	1380.05	1175.5	16.35
318.15 K, x1 = 0.8925	1397.5	1180	19.74
318.15 K, x1 = 1	1416.84	1184	24.63
323.15 K, x1 = 0.1034	975.381	1110.5	2.03
323.15 K, x1 = 0.203	1094.03	1115.8	2.98
323.15 K, x1 = 0.3043	1177.02	1126	3.93
323.15 K, x1 = 0.409	1239.67	1137	5.25
323.15 K, x1 = 0.5068	1284.24	1144.8	6.82
323.15 K, x1 = 0.603	1319.4	1152.6	9.13
323.15 K, x1 = 0.6981	1347.82	1158.6	11.42
323.15 K, x1 = 0.809	1375.13	1164.6	14.23
323.15 K, x1 = 0.8925	1392.58	1169.3	17.01
323.15 K, x1 = 1	1411.89	1173.5	21.11
